From patent US20230094076A1, “COMBINATION THERAPY” (GlaxoSmithKline Intellectual Property Development Limited, priority 2016, published 2023)

Tested on: AML cell lines
Assay: Preliminary RNA-seq studies
Assay type: cell-based
Conditions: chemokines, cytokines, interferons, interleukins
Description: PRMT1 has been implicated in immune regulation through modulation of the TLR receptor signaling pathway, whereby PRMT1 knock-down results in increased expression of pro-inflammatory molecules (Tikhanovich, I. et al. Dynamic Arginine Methylation of Tumor Necrosis Factor (TNF) Receptor-associated Factor 6 Regulates Toll-like Receptor Signaling. J Biol Chem 290, 22236-22249, doi:10.1074.jbc.M115.653543 (2015)).

In the case of CNCCN(C)Cc1c[nH]nc1[C@H]1CC[C@@]2(CC1)CC(C)(C)CO2 [Compound D], the “expression of immune response gene families” value was “altered expression”.
